The source of these data is paper PMC12136037, “Type II kinase inhibitors that target Parkinson’s disease–associated LRRK2” (Science Advances, 2025).

What all share (assay): DSF 100 kinase selectivity screen;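 also: compound tested at 20 µM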
Common to all, as to type: binding

Test [1] has as its target T1, ~100 representative kinases (Homo sapiens, UniProt Q9NSY1).
T1 construct: Recombinant protein kinase domains with a concentration of 2 μM
The following applies: Protein BMP2K; average of three replicates. Summed up: (§1)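 Each kinase domain, at 2 μM, is mixed with 20 μM test compound and SYPRO Orange in Hepes (20 mM, pH 7.5) with 500 mM NaCl. Temperature is then raised at 3°C/min and fluorescence-monitored unfolding yields the melting temperature change, ΔTm in degrees Celsius.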

The target of test [2] is T2, ~100 representative kinases (Homo sapiens, UniProt Q8TDX7).
T2 construct: Recombinant protein kinase domains with a concentration of 2 μM
T2 sequence (Q8TDX7 whole entry, the tested form may be a part): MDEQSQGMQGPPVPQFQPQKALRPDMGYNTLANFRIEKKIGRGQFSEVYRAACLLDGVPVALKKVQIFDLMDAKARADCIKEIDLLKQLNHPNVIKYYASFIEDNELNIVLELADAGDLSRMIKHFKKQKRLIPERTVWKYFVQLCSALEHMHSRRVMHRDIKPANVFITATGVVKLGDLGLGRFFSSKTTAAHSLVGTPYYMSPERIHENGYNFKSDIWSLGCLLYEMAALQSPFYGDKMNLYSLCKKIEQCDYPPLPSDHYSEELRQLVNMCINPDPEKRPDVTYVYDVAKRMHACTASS
The following applies: protein NEK7; average of three replicates. Summed up:
as §1

Test [3] deals with T3, ~100 representative kinases (Homo sapiens, UniProt P17948).
T3 construct: Recombinant protein kinase domains with a concentration of 2 μM
T3 sequence (P17948 27-1338): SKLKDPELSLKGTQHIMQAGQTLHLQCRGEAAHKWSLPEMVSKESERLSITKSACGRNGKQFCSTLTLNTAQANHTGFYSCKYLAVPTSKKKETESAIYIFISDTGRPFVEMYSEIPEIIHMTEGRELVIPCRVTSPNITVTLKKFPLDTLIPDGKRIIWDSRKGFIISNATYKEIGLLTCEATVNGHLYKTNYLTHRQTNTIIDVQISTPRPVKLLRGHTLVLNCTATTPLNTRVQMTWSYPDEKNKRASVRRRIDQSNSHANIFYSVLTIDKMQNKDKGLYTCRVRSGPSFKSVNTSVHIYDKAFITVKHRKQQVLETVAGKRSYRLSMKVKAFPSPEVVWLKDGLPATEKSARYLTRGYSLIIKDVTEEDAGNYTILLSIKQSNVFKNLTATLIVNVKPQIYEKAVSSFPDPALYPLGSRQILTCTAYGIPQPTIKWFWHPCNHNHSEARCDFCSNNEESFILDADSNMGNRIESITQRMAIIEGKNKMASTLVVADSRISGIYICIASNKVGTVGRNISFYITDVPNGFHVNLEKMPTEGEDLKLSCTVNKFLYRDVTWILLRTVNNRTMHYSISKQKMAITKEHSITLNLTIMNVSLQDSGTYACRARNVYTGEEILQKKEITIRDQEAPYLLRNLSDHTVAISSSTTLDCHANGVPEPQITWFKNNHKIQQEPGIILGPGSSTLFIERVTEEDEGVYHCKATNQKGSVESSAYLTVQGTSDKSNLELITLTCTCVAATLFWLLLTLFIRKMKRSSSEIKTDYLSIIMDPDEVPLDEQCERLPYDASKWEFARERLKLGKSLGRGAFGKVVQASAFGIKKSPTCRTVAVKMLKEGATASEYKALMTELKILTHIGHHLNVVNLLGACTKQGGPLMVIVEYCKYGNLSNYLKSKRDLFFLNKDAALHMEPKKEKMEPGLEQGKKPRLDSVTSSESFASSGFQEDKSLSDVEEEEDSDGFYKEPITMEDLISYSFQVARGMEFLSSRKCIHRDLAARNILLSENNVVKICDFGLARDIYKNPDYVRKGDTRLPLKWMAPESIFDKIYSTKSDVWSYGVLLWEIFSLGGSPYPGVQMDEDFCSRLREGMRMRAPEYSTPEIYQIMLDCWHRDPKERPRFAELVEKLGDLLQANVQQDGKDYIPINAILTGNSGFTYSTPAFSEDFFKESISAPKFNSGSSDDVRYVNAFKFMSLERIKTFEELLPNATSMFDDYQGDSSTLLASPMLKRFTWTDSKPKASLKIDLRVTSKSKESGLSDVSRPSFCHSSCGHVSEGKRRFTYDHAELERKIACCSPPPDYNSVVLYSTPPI
The settings on record: protein FLT1; average of three replicates. Summed up: as §1

The target in test [4] is T4, ~100 representative kinases (Homo sapiens, UniProt Q13554).
T4 construct: Recombinant protein kinase domains with a concentration of 2 μM
T4 sequence (Q13554 whole entry, the tested form may be a part): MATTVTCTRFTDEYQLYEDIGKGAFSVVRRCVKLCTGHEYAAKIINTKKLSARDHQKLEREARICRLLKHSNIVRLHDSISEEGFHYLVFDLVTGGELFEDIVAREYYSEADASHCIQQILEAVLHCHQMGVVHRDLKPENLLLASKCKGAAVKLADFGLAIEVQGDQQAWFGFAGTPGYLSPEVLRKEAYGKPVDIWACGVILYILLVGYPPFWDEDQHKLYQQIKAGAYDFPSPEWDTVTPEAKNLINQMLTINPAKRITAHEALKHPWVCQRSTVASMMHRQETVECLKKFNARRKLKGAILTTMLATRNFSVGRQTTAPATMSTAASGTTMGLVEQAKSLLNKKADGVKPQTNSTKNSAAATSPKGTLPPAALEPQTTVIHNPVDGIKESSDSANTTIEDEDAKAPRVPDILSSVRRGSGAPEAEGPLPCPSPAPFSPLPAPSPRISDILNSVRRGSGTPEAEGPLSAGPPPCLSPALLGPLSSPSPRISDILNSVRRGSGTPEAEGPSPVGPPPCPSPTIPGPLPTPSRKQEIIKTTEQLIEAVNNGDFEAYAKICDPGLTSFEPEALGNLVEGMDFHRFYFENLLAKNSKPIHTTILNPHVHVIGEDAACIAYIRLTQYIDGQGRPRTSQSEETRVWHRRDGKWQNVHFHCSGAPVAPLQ
The settings on record: Protein CAMK2B; average of three replicates. Summed up: as §1

Test [5] addresses T5, ~100 representative kinases (Homo sapiens, UniProt P54762).
T5 construct: Recombinant protein kinase domains with a concentration of 2 μM
T5 sequence (P54762 18-984): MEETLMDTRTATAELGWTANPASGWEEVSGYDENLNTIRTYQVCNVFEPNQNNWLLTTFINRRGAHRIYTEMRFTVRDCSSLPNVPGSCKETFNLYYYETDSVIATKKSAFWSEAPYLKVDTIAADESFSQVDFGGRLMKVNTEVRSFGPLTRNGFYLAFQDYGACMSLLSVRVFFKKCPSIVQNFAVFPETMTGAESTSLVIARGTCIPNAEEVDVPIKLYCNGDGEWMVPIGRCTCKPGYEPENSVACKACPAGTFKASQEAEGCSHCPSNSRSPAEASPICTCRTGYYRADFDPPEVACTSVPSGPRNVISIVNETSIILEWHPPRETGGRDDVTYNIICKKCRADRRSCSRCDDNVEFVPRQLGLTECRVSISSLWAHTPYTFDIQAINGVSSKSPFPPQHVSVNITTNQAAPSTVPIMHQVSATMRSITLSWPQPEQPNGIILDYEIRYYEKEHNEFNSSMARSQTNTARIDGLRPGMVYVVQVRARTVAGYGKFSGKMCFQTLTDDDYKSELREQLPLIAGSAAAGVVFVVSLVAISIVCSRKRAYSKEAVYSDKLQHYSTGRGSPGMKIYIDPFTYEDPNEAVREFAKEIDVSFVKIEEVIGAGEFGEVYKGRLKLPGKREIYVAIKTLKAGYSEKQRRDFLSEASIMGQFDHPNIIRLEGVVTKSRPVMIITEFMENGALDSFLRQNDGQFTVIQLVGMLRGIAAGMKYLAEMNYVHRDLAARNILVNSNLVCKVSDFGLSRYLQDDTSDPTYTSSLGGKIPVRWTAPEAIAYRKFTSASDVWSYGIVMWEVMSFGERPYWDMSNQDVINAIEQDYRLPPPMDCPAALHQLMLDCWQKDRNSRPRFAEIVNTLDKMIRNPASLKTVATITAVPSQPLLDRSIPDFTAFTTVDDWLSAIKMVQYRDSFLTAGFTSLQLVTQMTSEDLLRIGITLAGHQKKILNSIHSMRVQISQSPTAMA
The settings on record: Protein EPHB1; average of three replicates. The procedure, abridged:
as §1

Test [6] deals with T6, ~100 representative kinases (Homo sapiens, UniProt P49137).
T6 construct: Recombinant protein kinase domains with a concentration of 2 μM
T6 sequence (P49137 whole entry, the tested form may be a part): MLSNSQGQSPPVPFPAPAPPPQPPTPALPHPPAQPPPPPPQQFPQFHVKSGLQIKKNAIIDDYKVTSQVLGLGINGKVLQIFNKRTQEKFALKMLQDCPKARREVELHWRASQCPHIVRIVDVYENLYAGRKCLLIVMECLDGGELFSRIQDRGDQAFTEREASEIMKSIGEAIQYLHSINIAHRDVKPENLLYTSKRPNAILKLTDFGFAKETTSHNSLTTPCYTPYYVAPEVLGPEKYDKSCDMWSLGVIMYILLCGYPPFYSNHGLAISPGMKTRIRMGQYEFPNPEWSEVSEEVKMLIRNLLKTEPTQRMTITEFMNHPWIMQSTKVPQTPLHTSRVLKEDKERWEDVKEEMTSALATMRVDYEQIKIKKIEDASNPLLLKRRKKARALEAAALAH
The following applies: protein MAPKAPK2; average of three replicates. Summed up:
as §1

Test [7] concerns the target T7, ~100 representative kinases (Homo sapiens, UniProt O96017).
T7 construct: Recombinant protein kinase domains with a concentration of 2 μM
The following applies: Protein CHEK2; average of three replicates. Summed up: as §1

Test [8] has as its target T8, ~100 representative kinases (Homo sapiens, UniProt P51955).
T8 construct: Recombinant protein kinase domains with a concentration of 2 μM
T8 sequence (P51955 1-445): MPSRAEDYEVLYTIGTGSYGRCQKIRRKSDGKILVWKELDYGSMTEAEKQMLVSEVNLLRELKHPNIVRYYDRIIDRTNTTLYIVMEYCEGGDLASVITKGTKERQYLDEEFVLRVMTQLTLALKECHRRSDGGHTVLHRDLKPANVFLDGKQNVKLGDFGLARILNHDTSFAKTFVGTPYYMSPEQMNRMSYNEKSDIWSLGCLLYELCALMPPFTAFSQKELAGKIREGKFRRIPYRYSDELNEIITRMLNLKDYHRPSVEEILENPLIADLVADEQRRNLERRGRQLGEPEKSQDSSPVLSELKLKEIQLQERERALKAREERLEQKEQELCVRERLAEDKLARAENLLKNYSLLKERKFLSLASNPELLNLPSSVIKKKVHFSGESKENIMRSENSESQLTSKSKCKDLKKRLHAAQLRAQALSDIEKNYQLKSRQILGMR
The following applies: protein NEK2; average of three replicates. Summed up: as §1

The target in test [9] is T9, ~100 representative kinases (Homo sapiens, UniProt P19784).
T9 construct: Recombinant protein kinase domains with a concentration of 2 μM
T9 sequence (P19784 whole entry, the tested form may be a part): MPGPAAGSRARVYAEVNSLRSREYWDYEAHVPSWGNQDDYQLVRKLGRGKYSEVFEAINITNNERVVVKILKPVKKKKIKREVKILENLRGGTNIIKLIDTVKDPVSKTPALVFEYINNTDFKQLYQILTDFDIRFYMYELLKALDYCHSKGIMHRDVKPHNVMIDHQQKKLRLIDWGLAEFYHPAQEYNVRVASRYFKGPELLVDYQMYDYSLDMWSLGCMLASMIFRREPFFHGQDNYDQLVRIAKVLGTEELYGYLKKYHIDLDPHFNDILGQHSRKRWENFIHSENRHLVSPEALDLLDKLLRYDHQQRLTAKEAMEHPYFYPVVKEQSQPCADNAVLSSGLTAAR
The following applies: Protein CK2A2; average of three replicates. The procedure, abridged: as §1

The target of test [10] is T10, ~100 representative kinases (Homo sapiens, UniProt Q13043).
T10 construct: Recombinant protein kinase domains with a concentration of 2 μM
T10 sequence (Q13043 1-487): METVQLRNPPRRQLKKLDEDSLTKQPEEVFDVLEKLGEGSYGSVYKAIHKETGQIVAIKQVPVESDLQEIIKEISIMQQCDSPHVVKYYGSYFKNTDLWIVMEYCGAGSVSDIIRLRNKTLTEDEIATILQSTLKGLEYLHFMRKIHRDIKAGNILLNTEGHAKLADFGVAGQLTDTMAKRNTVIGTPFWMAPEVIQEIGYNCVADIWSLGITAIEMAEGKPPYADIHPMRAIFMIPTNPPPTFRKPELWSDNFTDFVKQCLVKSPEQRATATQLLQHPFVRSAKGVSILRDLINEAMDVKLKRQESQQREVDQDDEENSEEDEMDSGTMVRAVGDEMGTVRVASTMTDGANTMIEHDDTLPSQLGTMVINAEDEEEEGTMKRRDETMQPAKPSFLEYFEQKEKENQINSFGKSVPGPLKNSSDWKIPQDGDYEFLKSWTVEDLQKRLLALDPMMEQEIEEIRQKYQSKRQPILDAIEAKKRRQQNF
The following applies: Protein STK4; DSF; average of three replicates. Summed up:
as §1

T7 sequence (O96017 whole entry, the tested form may be a part): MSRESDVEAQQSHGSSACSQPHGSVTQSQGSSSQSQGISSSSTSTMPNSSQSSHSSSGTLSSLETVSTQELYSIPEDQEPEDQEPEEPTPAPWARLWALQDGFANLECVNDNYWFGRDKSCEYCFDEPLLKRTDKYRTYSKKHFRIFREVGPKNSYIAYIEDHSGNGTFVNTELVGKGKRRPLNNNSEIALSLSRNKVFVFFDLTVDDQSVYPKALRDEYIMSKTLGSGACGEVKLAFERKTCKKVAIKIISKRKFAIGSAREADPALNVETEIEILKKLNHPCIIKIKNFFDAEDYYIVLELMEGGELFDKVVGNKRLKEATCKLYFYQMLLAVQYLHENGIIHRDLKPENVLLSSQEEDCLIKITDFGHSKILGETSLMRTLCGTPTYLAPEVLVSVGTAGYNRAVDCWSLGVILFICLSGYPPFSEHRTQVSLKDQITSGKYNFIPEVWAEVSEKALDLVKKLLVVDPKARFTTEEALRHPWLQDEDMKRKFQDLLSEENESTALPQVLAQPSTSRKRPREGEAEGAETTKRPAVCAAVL
T1 sequence (Q9NSY1 whole entry, the tested form may be a part): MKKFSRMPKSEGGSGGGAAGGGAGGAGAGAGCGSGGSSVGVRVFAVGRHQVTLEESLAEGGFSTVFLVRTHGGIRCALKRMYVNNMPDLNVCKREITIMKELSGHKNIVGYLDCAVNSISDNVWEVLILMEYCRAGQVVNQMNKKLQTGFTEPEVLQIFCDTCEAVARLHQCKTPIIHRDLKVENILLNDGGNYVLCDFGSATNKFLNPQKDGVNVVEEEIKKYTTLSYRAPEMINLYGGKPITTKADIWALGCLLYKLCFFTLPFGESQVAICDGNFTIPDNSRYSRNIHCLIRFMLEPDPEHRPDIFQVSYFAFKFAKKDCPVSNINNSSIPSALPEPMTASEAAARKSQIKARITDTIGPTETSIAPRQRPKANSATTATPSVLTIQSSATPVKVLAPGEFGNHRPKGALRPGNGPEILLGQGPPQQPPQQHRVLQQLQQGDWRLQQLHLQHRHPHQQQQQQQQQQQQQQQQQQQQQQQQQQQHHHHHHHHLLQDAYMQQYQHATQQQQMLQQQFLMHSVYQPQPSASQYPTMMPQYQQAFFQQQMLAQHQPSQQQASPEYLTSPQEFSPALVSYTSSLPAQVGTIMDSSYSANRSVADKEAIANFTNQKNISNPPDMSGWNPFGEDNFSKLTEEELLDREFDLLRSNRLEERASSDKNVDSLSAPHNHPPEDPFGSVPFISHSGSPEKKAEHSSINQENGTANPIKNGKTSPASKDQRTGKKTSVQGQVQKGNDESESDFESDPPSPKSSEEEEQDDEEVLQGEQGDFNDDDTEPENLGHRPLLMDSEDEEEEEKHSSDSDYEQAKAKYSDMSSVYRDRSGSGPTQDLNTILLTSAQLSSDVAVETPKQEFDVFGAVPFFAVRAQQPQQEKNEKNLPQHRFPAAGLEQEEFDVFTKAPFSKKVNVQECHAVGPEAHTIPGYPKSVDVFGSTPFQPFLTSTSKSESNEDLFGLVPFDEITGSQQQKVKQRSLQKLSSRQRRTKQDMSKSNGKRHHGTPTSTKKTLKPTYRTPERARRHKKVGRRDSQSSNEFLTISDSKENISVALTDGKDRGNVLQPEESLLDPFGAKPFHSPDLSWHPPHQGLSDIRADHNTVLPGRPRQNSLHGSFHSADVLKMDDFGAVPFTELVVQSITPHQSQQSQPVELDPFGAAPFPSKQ

Turning to `Cc1ccc(C(=O)Nc2ccc(CN3CCN(C)CC3)c(C(F)(F)F)c2)cc1C#Cc1cnc2[nH]ncc2c1` [GZD-824, reference compound], the dTm is listed as 4.51 K in test [1]; 1.00 K in test [2]; 22.54 K in [3]; 0.11 K in test [4]; 14.98 K in test [5]; -0.24 K in test [6]. The dTm is reported as 5.84 K in [7], 0.45 K in [8], 1.79 K in [9] and 4.50 K in [10].
For the compound `C[C@@H]1CN(c2cc(-c3n[nH]c4ccc(OC5(C)CC5)cc34)ncn2)C[C@H](C)O1` [MLi2], the dTm in [1] was 2.01 K; in test [2], 0.03 K; in test [3], 0.51 K; in test [4], 1.04 K; in test [5], -0.37 K; in test [6], -0.23 K. Moreover, the dTm is given as 3.06 K in test [7], -0.21 K in [8], -0.31 K in test [9] and -0.67 K in test [10].
